Results taken from publication PMC7721954, “Preclinical comparison of four [^18F, ^natGa]rhPSMA-7 isomers: influence of the stereoconfiguration on pharmacokinetics” (EJNMMI Research, 2020).

Experiments:
[1] = molecular target: T1, PSMA (Homo sapiens, UniProt Q04609); assay: Competitive binding (IC50) on LNCaP cells vs ([125I]I-BA)KuE; conditions: 1 h, 4 °C, n = 5-9, read-out: IC50 (binding affinity)
T1 construct: host or cells: LNCaP cells
Protocol: (§1) Competitive binding studies were determined on LNCaP cells (1.5 × 10^5 cells in 1 mL/well) after incubation at 4 °C for 1 h, using (((S)-1-carboxy-5-(4-([^125I]iodo)benzamido)pentyl)carbamoyl)-L-glutamic acid (([^125I]I-BA)KuE; 0.2 nM/well) as reference radioligand (n = 5–9). Internalization studies of the radiolabeled ligands (0.5 nM/well) were performed on LNCaP cells (1.25 × 10^5 cells in 1 mL/well) at 37 °C for 1 h and accompanied by ([^125I]I-BA)KuE (0.2 nM/well), as reference. Data were corrected for non-specific binding and normalized to the specific internalization observed for the reference (n = 3–6). A detailed description of the experimental procedures was previously published.

[2] = molecular target: T2, human serum albumin (Homo sapiens, UniProt P02768); assay: Human serum albumin binding on Chiralpak HSA column; format: in vitro ADME
T2 construct: purchased
Protocol: Approximately 1 MBq of the ^18F-ligand was dissolved in 1 mL of a 1:1 mixture (v/v) of phosphate-buffered saline (PBS, pH 7.4) and n-octanol (n = 18–23). After vigorous mixing of the suspension for 3 min, the vial was centrifuged at 15,000 × g for 3 min and 100 μL aliquots of both layers were measured in a γ-counter. HSA binding of ^19F-^natGa-rhPSMA ligands was determined according to a previously published procedure.

[3] = tested on: LNCaP tumor-bearing mice; assay: Differential uptake and excretion pattern of isomers after injection of the diastereomeric mixture (radio-HPLC); format: in vivo; conditions: blood, liver, kidney and tumor, 30 min p.i., n = 4
Protocol: With the intention to identify even marginal differences in the in vivo behavior, all four [^18F, ^natGa]rhPSMA-7 isomers were co-evaluated in one single tumor-bearing mouse in order to quantify the differential uptake and excretion pattern of each isomer. For this purpose, the diastereomeric mixture [^18F, ^natGa]rhPSMA-7 was produced in high molar activity (AM) of 247–349 GBq/µmol (at end of synthesis) and the abundance of each isomer was determined by radio-HPLC. Mice (n = 4) were injected with [^18F, ^natGa]rhPSMA-7 (180–280 MBq, 0.9–1.0 nmol) and left under anesthesia. After 30 min p.i., they were sacrificed and urine, blood, liver, kidneys and tumor were collected and processed. Radioactivity was extracted from solid tissues by means of a Potter–Elvehjem tissue grinder (n = 1) or a ball mill (n = 3) and separated from the protein fraction by subsequent cartridge-based solid-phase extraction (SPE). Blood samples were diluted, centrifuged and the supernatant was purified by SPE (see supporting information). Urine and extracts from tissue samples were then analyzed by radio-HPLC to quantify the fraction of each isomer in each sample. Finally, the relative percentage difference between the abundance of each isomer in the injected diastereomeric mixture (values taken from the quality control) and the abundance of the respective isomer in each analyzed tissue or body fluid was calculated. […] PeakFit allows for automated nonlinear separation, analysis and quantification of HPLC elution profiles by deconvolution procedures that uses a Gaussian response function with a Fourier deconvolution/filtering algorithm (see Additional file 1: Fig. 7).
Extraction via the Potter-Elvehjem Tissue Grinder. Tumor and kidneys were separately homogenized in the tissue homogeniser with 1 mL of extraction buffer (850 μL 1 M HEPES pH 7.4, 100 μL 20 mM PMPA and 100 μL 1 M NaCl) for 30 min. The resulting homogenate was collected and centrifuged at 13000×g for 5 min. Subsequently, the supernatant was collected, centrifuged again (13000×g, 5 min) and loaded on a Strata X cartridge (33 μm Polymeric Reversed Phase 500 mg) preconditioned with 5 mL MeOH, followed by 5 mL H2O. After washing with 5 mL H2O, the cartridge was eluted with a 3:2 mixture (v/v) of MeCN in H2O supplemented with 1% TFA. For radio-HPLC analysis the eluates were diluted with water.
Extraction via the MM-400 Ball Mill. The samples (tumor, kidney, liver) were separately homogenized in a 2 mL tube together with 3 grinding balls (3 mm diameter) and 1 mL of extraction buffer (850 μL 1 M HEPES pH 7.4, 100 μL 20 mM PMPA and 100 μL 1 M NaCl) for 10 min at 30 Hz. The homogenate was centrifuged at 13 000×g for 5 min and the supernatant was collected. […]

[4] = tested on: LNCaP tumor-bearing male CB-17 SCID mice; assay: Biodistribution 1 h p.i. with competition (co-injection of 2-PMPA); format: in vivo; conditions: co-injected with 2-PMPA (8 mg/kg), n = 3
Protocol: (§2) LNCaP tumor xenografts were established in 6–8 weeks old male CB-17 SCID mice as described previously.
(§3) 1–3 MBq (0.2 nmol) of the [^18F, ^natGa]rhPSMA inhibitors were injected into the tail vein of LNCaP tumor-bearing male CB-17 SCID mice that were sacrificed 1 h post injection (p.i.) (n = 4 for 7.1, n = 5 for 7.2, n = 4 for 7.3, n = 5 for 7.4 and n = 3 for 7). Selected organs were removed, weighed, and measured in a γ-counter. For competition studies, 8 mg/kg of 2-PMPA (2-(Phosphonomethyl)-pentandioic acid) were co-administered (n = 3).

[5] = tested on: LNCaP tumor-bearing male CB-17 SCID mice; assay: Biodistribution 1 h p.i.; format: in vivo
Protocol: as §2, §3

[6] = tested on: LNCaP cells; assay: Internalization into LNCaP cells relative to ([125I]I-BA)KuE; format: cell-based; conditions: 1 h, 37 °C, percentage of reference ligand ([125I]I-BA)KuE, n = 3-6
Protocol: as §1

T1 sequence (Q04609 whole entry): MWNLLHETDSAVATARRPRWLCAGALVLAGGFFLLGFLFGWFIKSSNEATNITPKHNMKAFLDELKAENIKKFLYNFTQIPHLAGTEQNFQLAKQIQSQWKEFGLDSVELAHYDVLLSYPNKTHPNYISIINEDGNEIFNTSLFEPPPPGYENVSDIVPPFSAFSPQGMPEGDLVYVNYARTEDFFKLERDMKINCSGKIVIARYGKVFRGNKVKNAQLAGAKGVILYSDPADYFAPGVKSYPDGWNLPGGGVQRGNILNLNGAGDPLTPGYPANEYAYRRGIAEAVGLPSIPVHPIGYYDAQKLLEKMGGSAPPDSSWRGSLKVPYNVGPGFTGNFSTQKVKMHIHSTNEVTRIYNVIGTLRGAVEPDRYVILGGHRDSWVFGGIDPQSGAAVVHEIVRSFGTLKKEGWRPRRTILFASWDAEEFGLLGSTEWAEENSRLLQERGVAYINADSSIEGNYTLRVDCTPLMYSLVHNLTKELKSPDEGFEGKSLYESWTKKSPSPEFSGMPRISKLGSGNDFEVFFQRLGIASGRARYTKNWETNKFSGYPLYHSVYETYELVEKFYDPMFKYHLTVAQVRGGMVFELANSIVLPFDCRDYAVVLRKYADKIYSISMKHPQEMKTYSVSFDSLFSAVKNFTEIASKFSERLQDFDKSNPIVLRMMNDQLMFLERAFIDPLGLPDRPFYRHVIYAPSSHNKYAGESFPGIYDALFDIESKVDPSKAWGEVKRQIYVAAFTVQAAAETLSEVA
T2 sequence (P02768 25-609): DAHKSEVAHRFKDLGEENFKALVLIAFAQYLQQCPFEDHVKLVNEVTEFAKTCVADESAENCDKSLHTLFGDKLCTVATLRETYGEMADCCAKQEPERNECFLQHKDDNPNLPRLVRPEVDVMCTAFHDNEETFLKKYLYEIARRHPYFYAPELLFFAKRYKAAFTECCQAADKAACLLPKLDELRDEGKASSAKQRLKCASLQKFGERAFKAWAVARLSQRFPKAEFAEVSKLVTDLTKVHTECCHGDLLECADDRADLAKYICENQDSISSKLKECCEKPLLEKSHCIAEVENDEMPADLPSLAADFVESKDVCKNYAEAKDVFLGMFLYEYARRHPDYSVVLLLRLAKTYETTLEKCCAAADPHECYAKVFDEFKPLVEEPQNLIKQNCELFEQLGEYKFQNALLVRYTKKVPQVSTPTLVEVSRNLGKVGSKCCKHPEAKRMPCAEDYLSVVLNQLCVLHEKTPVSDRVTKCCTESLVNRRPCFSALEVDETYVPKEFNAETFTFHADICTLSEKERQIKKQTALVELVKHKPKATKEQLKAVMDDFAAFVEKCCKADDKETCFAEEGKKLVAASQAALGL

CC(C)(C)[Si](F)(c1ccc(C(=O)NC[C@@H](NC(=O)CC[C@H](C(=O)O)N2CCN(CC(=O)[O-])CCN(CC(=O)[O-])CCN(CC(=O)[O-])CC2)C(=O)N[C@H](CCCCNC(=O)CCC(=O)NCCC[C@@H](NC(=O)CC[C@H](NC(=O)N[C@@H](CCC(=O)O)C(=O)O)C(=O)O)C(=O)O)C(=O)O)cc1)C(C)(C)C.[Ga+3] [[^18F, ^natGa]rhPSMA-7.1]
IC50 [1]: 6.9 ± 1.4 nM

CC(C)(C)[Si](F)(c1ccc(C(=O)NC[C@@H](NC(=O)CC[C@@H](C(=O)O)N2CCN(CC(=O)[O-])CCN(CC(=O)[O-])CCN(CC(=O)[O-])CC2)C(=O)N[C@H](CCCCNC(=O)CCC(=O)NCCC[C@@H](NC(=O)CC[C@H](NC(=O)N[C@@H](CCC(=O)O)C(=O)O)C(=O)O)C(=O)O)C(=O)O)cc1)C(C)(C)C.[Ga+3] [[^18F, ^natGa]rhPSMA-7.3]
IC50 [1]: 4.4 ± 1.1 nM

CC(C)(C)[Si]([18F])(c1ccc(C(=O)NC[C@@H](NC(=O)CC[C@@H](C(=O)O)N2CCN(CC(=O)[O-])CCN(CC(=O)[O-])CCN(CC(=O)[O-])CC2)C(=O)N[C@H](CCCCNC(=O)CCC(=O)NCCC[C@@H](NC(=O)CC[C@H](NC(=O)N[C@@H](CCC(=O)O)C(=O)O)C(=O)O)C(=O)O)C(=O)O)cc1)C(C)(C)C.[Ga+3] [[^18F, ^natGa]rhPSMA-7.3]
HSA-binding [2]: 97%
Abundance (enrichment) of the isomer in tissue compared to time point of injection [3]: higher
Biodistribution Adrenals [4]: 0.07 ± 0.09 % ID/g
Biodistribution Blood [4]: 0.55 ± 0.14 % ID/g
Biodistribution Bone [4]: 0.34 ± 0.22 % ID/g
Biodistribution Heart [4]: 0.26 ± 0.04 % ID/g
Biodistribution Intestine [4]: 0.94 ± 0.97 % ID/g
Biodistribution Kidneys [4]: 15.5 ± 2.2 % ID/g
Biodistribution Liver [4]: 0.46 ± 0.14 % ID/g
Biodistribution Lung [4]: 0.69 ± 0.10 % ID/g
Biodistribution Muscle [4]: 0.09 ± 0.02 % ID/g
Biodistribution Pancreas [4]: 0.11 ± 0.02 % ID/g
Biodistribution Spleen [4]: 0.35 ± 0.02 % ID/g
Biodistribution Stomach [4]: 0.76 ± 0.74 % ID/g
Biodistribution Tumor [4]: 1.5 ± 0.4 % ID/g
Biodistribution Adrenals [5]: 2.2 ± 0.83 % ID/g
Biodistribution Blood [5]: 0.96 ± 0.24 % ID/g
Biodistribution Bone [5]: 0.38 ± 0.32 % ID/g
Biodistribution Heart [5]: 0.87 ± 0.17 % ID/g
Biodistribution Intestine [5]: 0.35 ± 0.07 % ID/g
Biodistribution Kidneys [5]: 292 ± 45.1 % ID/g
Biodistribution Liver [5]: 0.69 ± 0.13 % ID/g
Biodistribution Lung [5]: 2.2 ± 0.35 % ID/g
Biodistribution Muscle [5]: 0.33 ± 0.15 % ID/g
Biodistribution Pancreas [5]: 0.63 ± 0.44 % ID/g
Biodistribution Spleen [5]: 16.6 ± 2.6 % ID/g
Biodistribution Stomach [5]: 0.44 ± 0.23 % ID/g
Biodistribution Tumor [5]: 18.3 ± 7.2 % ID/g
Internalization (internalized activity) [6]: 161 ± 9 % of reference

CC(C)(C)[Si](F)(c1ccc(C(=O)NC[C@H](NC(=O)CC[C@@H](C(=O)O)N2CCN(CC(=O)[O-])CCN(CC(=O)[O-])CCN(CC(=O)[O-])CC2)C(=O)N[C@H](CCCCNC(=O)CCC(=O)NCCC[C@@H](NC(=O)CC[C@H](NC(=O)N[C@@H](CCC(=O)O)C(=O)O)C(=O)O)C(=O)O)C(=O)O)cc1)C(C)(C)C.[Ga+3] [[^18F, ^natGa]rhPSMA-7.4]
IC50 [1]: 3.6 ± 0.7 nM

CC(C)(C)[Si]([18F])(c1ccc(C(=O)NC[C@H](NC(=O)CC[C@H](C(=O)O)N2CCN(CC(=O)[O-])CCN(CC(=O)[O-])CCN(CC(=O)[O-])CC2)C(=O)N[C@H](CCCCNC(=O)CCC(=O)NCCC[C@@H](NC(=O)CC[C@H](NC(=O)N[C@@H](CCC(=O)O)C(=O)O)C(=O)O)C(=O)O)C(=O)O)cc1)C(C)(C)C.[Ga+3] [[^18F, ^natGa]rhPSMA-7.2]
HSA-binding [2]: 98%
Abundance (enrichment) of the isomer in tissue compared to time point of injection [3]: lowest enrichment in blood, liver and kidney, but also the lowest uptake by tumors
Biodistribution Adrenals [4]: 0.07 ± 0.10 % ID/g
Biodistribution Blood [4]: 1.1 ± 0.31 % ID/g
Biodistribution Bone [4]: 0.57 ± 0.39 % ID/g
Biodistribution Heart [4]: 0.47 ± 0.09 % ID/g
Biodistribution Intestine [4]: 0.33 ± 0.10 % ID/g
Biodistribution Kidneys [4]: 10.9 ± 1.0 % ID/g
Biodistribution Liver [4]: 0.46 ± 0.07 % ID/g
Biodistribution Lung [4]: 1.1 ± 0.32 % ID/g
Biodistribution Muscle [4]: 0.09 ± 0.03 % ID/g
Biodistribution Pancreas [4]: 0.12 ± 0.05 % ID/g
Biodistribution Spleen [4]: 0.26 ± 0.07 % ID/g
Biodistribution Stomach [4]: 0.21 ± 0.06 % ID/g
Biodistribution Tumor [4]: 1.0 ± 0.13 % ID/g
Biodistribution Adrenals [5]: 1.3 ± 0.8 % ID/g
Biodistribution Blood [5]: 0.56 ± 0.20 % ID/g
Biodistribution Bone [5]: 0.31 ± 0.24 % ID/g
Biodistribution Heart [5]: 0.32 ± 0.13 % ID/g
Biodistribution Intestine [5]: 0.18 ± 0.07 % ID/g
Biodistribution Kidneys [5]: 87.6 ± 28.8 % ID/g
Biodistribution Liver [5]: 0.35 ± 0.08 % ID/g
Biodistribution Lung [5]: 0.89 ± 0.38 % ID/g
Biodistribution Muscle [5]: 0.13 ± 0.07 % ID/g
Biodistribution Pancreas [5]: 0.21 ± 0.08 % ID/g
Biodistribution Spleen [5]: 10.1 ± 6.3 % ID/g
Biodistribution Stomach [5]: 0.19 ± 0.08 % ID/g
Biodistribution Tumor [5]: 6.5 ± 2.3 % ID/g
Internalization (internalized activity) [6]: 192 ± 16 % of reference

CC(C)(C)[Si](F)(c1ccc(C(=O)NC[C@H](NC(=O)CC[C@H](C(=O)O)N2CCN(CC(=O)[O-])CCN(CC(=O)[O-])CCN(CC(=O)[O-])CC2)C(=O)N[C@H](CCCCNC(=O)CCC(=O)NCCC[C@@H](NC(=O)CC[C@H](NC(=O)N[C@@H](CCC(=O)O)C(=O)O)C(=O)O)C(=O)O)C(=O)O)cc1)C(C)(C)C.[Ga+3] [[^18F, ^natGa]rhPSMA-7.2]
IC50 [1]: 3.7 ± 1 nM
